*: point of attachment. CH2F = FC*

Type in all cases: cell-based, human
The subject of assay [1] is 769-P cells (endolysosomal compartment). In words: Neutral red assay (endolysosomal integrity), 769-P. The following applies: 2.5–250 μM; 48 h. The procedure: (§1) Figure S6. The effect of the peptide inhibitors on human 769‐P and A498 renal cancer cell on
(§2) lysosomes integrity. (a) 769‐P and (b) A498 cells were treated with increasing doses of Ac‐PLVE‐FMK
(§3) (red bars) and Ac‐VLPE‐FMK (blue bars) (2.5–250 μM). NR uptake was measured after 24, 48, and 72
(§4) h via MTT assay. (c) LysoTracker red evaluation in 769‐P and (d) A498 cells after 24, 48, and 72 h with
(§5) the inhibitors (20 μM). Data represent the mean (± S.D.) of at least three independent experiments,
(§6) each performed in triplicate.

The test system of assay [2] is A498 cells. In words: Cell viability/proliferation (MTT), A498. The following applies: 2.5–250 μM; for Cell viability: 72 h; for Effect on cell proliferation: within 48 h. The procedure:
Figure 3 The effect of the peptide inhibitors on human 769-P and A498 renal cancer cell proliferation and proteolytic activity. (a) 769-P and (b) A498 cells were treated with increasing doses of Ac-PLVE-FMK (red bars) and Ac-VLPE-FMK (blue bars) (2.5–250 μM). Cell proliferation was measured after 24, 48, and 72 h via MTT (3-(4,5-dimethylthiazol-2-yl)-2,5-diphenyltetrazolium bromide) assay. Data represent the mean (±S.D.) of at least three independent experiments, each performed in triplicate. (c) Fluorescence microscopy evaluation and quantification of the cell proteolytic activity in 769-P and (d) A498 cells towards the fluorogenic substrate Ac-PLVQ-AMC in the absence or presence of Ac-PLVE-FMK and Ac-VLPE-FMK. The cells were seeded in a 96-well plate and after exposure to the peptides for 30 min prior incubation with the fluorescent substrate Ac-PLVQ-AMC for 10 min. Data are expressed as mean (±S.D.), and significance was calculated through one-way ANOVA followed by Dunnet’s test. * = p < 0.05, ** = p < 0.01, *** = p < 0.001.
The human renal cancer cell line lines […], A498 were obtained from Dr. Vadim Pokrovsky (purchased from American Type Culture Collection). The cells were cultured in RPMI 1640, supplemented with 10% fetal bovine serum and 1% mixture of antibiotics penicillin-streptomycin (all from Gibco, Waltham, MA, USA) at 5% CO2 and 37 °C in a humidified chamber. Cells were grown to confluence and harvested by trypsinization, using a 0.25 mg/mL trypsin/EDTA solution (ThermoFisher, Carlsbad, CA, USA) and resuspended in the fresh culture medium. Viable cells were enumerated on the Countess II FL Automated Cell Counter (ThermoFisher, Waltham, MA, USA), following Trypan Blue staining. The cell lines were tested for mycoplasma contamination regularly, using the Molecular Probes™ MycoFluor Mycoplasma Detection Kit (ThermoFisher, Waltham, MA, USA).
The cell number was evaluated by counting viable cells using the MTT (3-(4,5-dimethylthiazol-2-yl)-2,5-diphenyltetrazolium bromide) colorimetric assay. A total of 2 × 10^4 cells/well were seeded on independent 96-well plates for each time point (0, 24, 48, and 72 h), with five replicates and treated with two inhibitors (2.5–250 μM). Then, 10 µL of the MTT reagent was added to each well, and cells were incubated for another 5 h. Next, the absorbance value was measured using a CLARIOstar® Plus plate reader (BMG Labtech, Ortenberg, Germany) at 490 nm. Triplicate wells were assayed, and S.D.s were determined.

The subject of assay [3] is A498 cells (endolysosomal compartment). In words: Neutral red assay (endolysosomal integrity), A498. The settings on record: 2.5–250 μM; 48 h. The protocol: as §1, §2, §3, §4, §5, §6
In assay [4] the test system is E-cadherin in 769-P cells. Description: E-cadherin protein expression (western blot), 769-P. The procedure:
These properties could be the result of the modulation of the effectors controlling EMT, as previously shown in other tumor models. To test this hypothesis, the cells were treated with the inhibitors for 24, 48, and 72 h by changing the media every day, and they were tested for E-cadherin and SNAIL1 expression (Figure 6; detail information of western blots can be seen in Supplementary Figure S7).  Figure 6 Effects of the peptides on E-cadherin and SNAIL1 protein expression: (a,b) protein expression of E-cadherin and SNAIL1 in 769-P and (c,d) A498 cells after 24, 48, and 72 h of treatment with the peptides. Data are represented as mean ± SD of at least three replicates. Significance was calculated through one-way ANOVA, followed by Dunnet’s test. Cells were seeded in RPMI containing 10% FBS and cultured for 24 h. Next, 30 µM of inhibitors were added to the culture medium and incubated for 24, 48, and 72 h. Control cells were treated with 0.01% DMSO. At all time points the samples were lysed in 50 mM Tri-HCl (pH 8.0), 100 mM NaCl, 0.5% NP-40, 1% Triton X-100, 1× protease inhibitor cocktail (ThermoFisher, Waltham, MA, USA). The 50 µg of protein lysates were separated by electrophoresis on a 12% SDS-PAGE gel and transferred to the PFDF membranes. The expression of cysteine Cts, LAMP-1, E-cadherin, and SNAIL1 were identified by a reaction with specific primary antibodies (CtsB-Ab190077, Abcam, UK; CtsL-Ab95154, Abcam, UK; CtsW Ab191083; LAMP-1- Ab24170, Abcam, UK; SNAIL1 Ab216347, Abcam, UK and e-cadherin-612131, BD Sciences Franklin Lakes, NJ, USA) which were resuspended in 5% non-fat milk in PBST (all Cts 1:3000, LAMP-1, SNAIL1 and E-cadherin 1:1000) and incubated O/N. The next day, the membranes were washed three times with PBST and incubated for 1 h with secondary antibodies (P-GAR Iss (Goat pAb to rabbit IgG (HRP), Abcam, UK or Rabbit Ab to mouse, Abcam, UK; both 1:5000) in 5% non-fat milk in PBST. After an additional wash (three times with PBS), reactive bands were detected by chemiluminescence (Bio-Rad, Irvine, CA, USA). As a loading control, the membranes were incubated with a polyclonal anti-tubulin antibody (1:5000; Ab52866, Abcam, UK) identically.

As for Ac-VLPE-CH2F [Ac-VLPE-FMK], the Neutral red uptake result was “slightly increasing” in assay [1] and “decreasing” in assay [3]. In assay [2], the Cell viability entry was “cell viability increased, reaching values not significantly different from the control cells”. In assay [2], the “Effect on cell proliferation” value is reported as “cytostatic properties on both cell lines only within 48 h of treatment”. Further, the E-cadherin protein expression entry in assay [4] (72 h) is on record as “further increased in 769P cells”; in assay [4] (first 48 h), “increased the protein expression of E-cadherin in the first 48 h in both the cell lines”.
Ac-PLVE-CH2F [Ac-PLVE-FMK]: the Neutral red uptake result is recorded as “slightly increasing” in assay [1] and “decreasing” in assay [3]. Also, the Cell viability entry in assay [2] is “cell viability increased, reaching values not significantly different from the control cells”. Also, in assay [2], the “Effect on cell proliferation” value is “cytostatic properties on both cell lines only within 48 h of treatment”. Further, the E-cadherin protein expression result in assay [4] (72 h) is recorded as “further increased in 769P cells”; in assay [4] (first 48 h), “increased the protein expression of E-cadherin in the first 48 h in both the cell lines”.

The values are drawn from PMC7281206, “Cysteine Cathepsins Inhibition Affects Their Expression and Human Renal Cancer Cell Phenotype” (Cancers, 2020).
